Patent publication US7349080B2, “Label-independent detection of unpurified analytes” (Corning Incorporated, priority 2004, dated 2008)

Test: Label-independent detection (LID) of binding to immobilized biotin on a grating-coupled waveguide microplate
From the text: A label-independent detection (LID) system developed by Corning Inc. was used to evaluate interactions between unlabeled streptavidin and immobilized biotin. This LID system is comprised of a multi-well optical reader and a disposable microplate (e.g., a 96- or 384-well microplate). Each well of the microplate contains a grating-coupled waveguide for evanescent field sensing. The sensing surface has a surface chemistry layer allowing for attachment of molecules that contain primary amine groups (e.g., biotin-amine). As streptavidin or other analytes of interest bind to the sensing surface, the refractive index at the surface is changed. An optical mode propagates and senses the refractive index changes close to the sensing surface. Only light that is “resonant” is strongly reflected, and the exact wavelength of the resonance is a sensitive function of the refractive index at the surface of the sensor. In a typical operation, a baseline read of the microplate is first established. Addition of a binding partner results in a change in refractive index at the sensing surface, which is indicated as picometer (pm) shift from baseline. Each microplate is read on the optical reader before, during, and after the addition of the binding partner. Resonant wavelength shift (“Response (pm)”) is plotted as a function of time. Cell lysate was prepared by diluting a 2 mg/ml stock to 100 μg/ml final concentration. A Corning 96-well clear polystyrene non-treated flat bottom plate (Corning catalog # 3370) was used for source plate preparation. To facilitate efficient pickup of the sample solutions by a multi-channel robotic pipettor in the LID instrument, each well of the source plate contained extra solution. A solution of 1× phosphate buffered saline (PBS; 1 mM KH2PO4, 10 mM Na2HPO4, 137 mM NaCl, and 2.7 mM KCl) was used as a first addition step for baseline measure. […] Interactions between purified streptavidin and immobilized biotin were first evaluated (FIG. 2). […] PBS was added to establish a baseline read (before point A). […]

## NCCO [Ethanolamine, ethanolamine]
Ethanolamine in borate buffer, between points B and C, corrected response curve, FIG. 3
  binding to the target area: did not appear to bind to the target area

## streptavidin
PBS wash after point C, corrected response curve, FIG. 3
  effect of post wash on binding of streptavidin to biotin: did not disrupt the binding
Purified streptavidin 200 nM in 1x PBS, between points A and B, FIG. 2
  bulk index shift (Response (pm)) due to binding to the immobilized biotin: increase in the bulk index
